Experimental data published in patent publication US10988444B2, “Antimicrobial compounds” (NEWSOUTH INNOVATIONS PTY LIMITED, priority 2016, dated 2021).
Values after ≈ are worked out from the molar mass of the structure shown. Values joined by “and” are separate entries in the source; they are usually repeats but may differ in a detail not shown here. Equal values may be shown once. Read-outs that look alike come from different tables or passages of the source.

Key:
S. aureus (SA38) = experiment: Minimal inhibitory concentration (MIC) assay, Example 2; assay type: cell-based; details: Staphylococcus aureus, TSB, 37° C., 24 h
Method: A single colony of bacteria was cultured overnight in TSB at 37° C. The resulting bacterial culture was collected by centrifugation and re-suspended in TSB twice. The optical density (OD) of the resulting culture was adjusted to OD600=0.1 in TSB (equivalent to 10^8 colony forming unit (CFU)/mL bacteria), and was further diluted to 10^5 CFU/mL in TSB. 100 μL of the bacterial solution was then added to wells of a 96-well plate containing 100 μL serially diluted compound, with final concentration ranging from 8-250 μM. The plates were then incubated at 37° C. for 24 h and the data was recorded by measuring the OD value at 600 nm using a Wallac Victor (Perkin-Elmer) microplate reader. […] Each experiment was performed in triplicate and was repeated in two independent experiments. The results of the MIC assay are given below in Table 2.

[1] = Membrane conduction, tBLMs containing 30% POPG, Example 2; details: negatively charged lipid, 50 μM, preliminary study
Description: Tethered bilayer lipid membranes (tBLMs) associated with alternating current electrical impedance spectroscopy techniques were employed to determine whether the compounds (24a, 38b, 42d, 43d) are lytic to cell membranes. Sparsely tethered tBLMs containing 30% palmitoyl-oleoyl-phosphati-dylglycerol (POPG) were created using the solvent-exchange technique described by Cranfield et al. in 2015 (see Cranfield, C. G.; Bettler, T.; Cornell, B. Langmuir 2015, 31 (1), 292-298). The tBLM conduction responses of compounds (24a, 38b, 42d, 43d) were compared to that of LL-37, a cathelicidin AMP that is known to permeabilise membranes.

[2] = tested on: MRC-5 normal human lung fibroblasts; experiment: Cytotoxicity assay, Alamar blue, Example 2; assay type: cell-based; details: for IC50: Homo sapiens, MRC5, MRC-5, concentration which killed half of the cells
Method: The in vitro toxicity of the compounds (24a, 38b, 42d, 43d) was determined against MRC-5 normal human lung fibroblasts using the Alamar blue assay (see O'Brien, J.; Wilson, I.; Orton, T.; Pognan, F. Eur. J. Biochem. 2000, 267 (17), 5421-5426). A dose-response curve for each compound was generated to determine the IC50 values (concentration of compound which killed half of the cells) and the IC50 values were then used to determine the therapeutic window (IC50 value divided by MIC value) and specificity of the compounds (Table 3).

E. coli [3] = experiment: Minimal inhibitory concentration (MIC) determination, Example 1; assay type: cell-based; details: 24 h, MHB, 37° C.; for MIC: Escherichia coli, read-out: Minimum inhibitory concentration (MIC) E. coli
Method: (§1) The antibacterial activity of the compounds was determined by the determination of minimal inhibitory concentration (MIC) by following the previously published protocol (see Nizalapur, S.; Ho, K. K.; Kimyon, Ö.; Yee, E.; Berry, T.; Manefield, M.; Cranfield, C. G.; Willcox, M.; Black, D. S.; Kumar, N. Org. Biomol. Chem. 2016, 14, 3623). The compounds to be tested were dissolved and diluted in autoclaved Millipore water. A single colony of bacteria was cultured overnight in TSB at 37° C. The resulting bacteria were collected by centrifugation and re-suspended in the same volume of MHB twice. Optical density (OD) of the resulting culture was adjusted to 0.1 at 600 nm (10^8 CFU/mL) in MHB, and the adjusted culture was further diluted to […] in MHB. Then, 100 μL of the bacterial solution was added to wells of a 96-well plate containing 100 μL of serially diluted compound. Two controls were also prepared: one containing 100 μL of MHB media and 100 μL sterile water, and the other containing 100 μL of bacterial solution and 100 μL sterile water. […] The MIC value was determined as the lowest concentration of compound that inhibited the complete growth of the bacteria (i.e. OD similar to that of the control having no bacteria). Each experiment was performed in triplicate and was repeated in three independent experiments.
(§2) The results of the MIC assay are given below in Table 1.

S. aureus [4] = experiment: as above; assay type: cell-based; details: Staphylococcus aureus
Method: as §1, §2

S. marcescens [5] = experiment: Biofilm disruption assay, established biofilms, crystal violet staining; assay type: cell-based, Serratia marcescens; details: 250 μM, 24 h treatment
Method: (§3) Bacterial cultures were grown in TSB media for overnight at 37° C. with shaking at 150 r.p.m. Cultures were diluted (1:20) in YPD medium and 200 μl aliquots were dispensed to flat bottom 96-well plate wells (Sarstedt Australia). Cultures were supplemented with varying concentrations of synthetic compounds dissolved in water. For pre-established biofilm assay, cultures were grown in 96-well plate wells overnight prior to supplementation with synthetic compounds. Control cultures were supplemented with an equal amount of DMSO. Plates were sealed with self-adhesive microplate sealers (TopSeal-A, PerkinElmer) to allow air diffusion and to prevent condensation. Cultures were incubated overnight at 37° C. with shaking at 150 r.p.m. Biofilms adhered on polystyrene substratum were quantified by crystal violet staining as described previously (see Wiegand, I.; Hilpert, K.; Hancock, R. E. W. Nat. Protocols 2008, 3 (2), 163-175). All cultures were prepared in triplicates. Error bars represent the standard error of three independent experiments (n=3).
(§4) The biofilm disruption activities of the compounds were investigated using crystal violet staining according to a previously published protocol (G. A. O'Toole, J Vis Exp, 2011, (47), pii: 2437, DOI: 10.3791/2437, 2437). The ability of compounds (34-38, 51-56, 61, 62, 65 and 66) to disrupt the established biofilms of the Gram-positive bacteria S. aureus and the Gram-negative bacteria Pseudomonas aeruginosa, Serratia marcescens and E. coli, was determined at a concentration of 250 μM. In this assay, bacterial cultures were grown on a polystyrene substratum overnight prior to treatment with the compounds. In addition, the ability of these compounds to inhibit the formation of biofilms of P. aeruginosa and S. marcescens was also investigated at 250 μM, whereby the bacterial cultures were grown in the presence of test compounds.

E. coli [6] = experiment: as above; assay type: cell-based; details: 250 μM, 24 h treatment
Method: as §3, §4

[7] = tested on: MRC-5 normal human lung fibroblasts; experiment: Toxicity assay, Alamar blue, Example 1; assay type: cell-based; details: for IC50: Homo sapiens, MRC5, 72 h incubation, read-out: toxicity (IC50) against MRC-5 human fibroblast cells
Method: The normal human lung fibroblasts MRC-5 were cultured in minimal essential medium (MEM, Invitrogen) supplemented with 10% foetal calf serum (FCS), 1% L-glutamine-penicillin-streptomycin, 2% sodium bicarbonate, 1% non-essential amino acids (NEAA) and 1% sodium pyruvate. The cell line was maintained at 37° C. in 5% CO2 as an adherent monolayer and was passaged upon reaching confluence by standard cell culture techniques. MRC-5 cells were seeded at 2×10^4 cells per well in 96-well plates to ensure full confluence (quiescence). Cells were treated 24 h after seeding with 0.1 to 1000 μM of compounds. After 72 h drug incubation, the treated media was replaced with fresh media containing 10% Alamar blue and the cells were incubated for another 6 h. The metabolic activity was detected by spectrophotometric analysis by assessing the absorbance of Alamar blue as previously described by Pasquier et. al (see Pasquier, E.; Ciccolini, J.; Carre, M.; Giacometti, S.; Fanciullino, R.; Pouchy, C.; Montero, M.-P.; Serdjebi, C.; Kavallaris, M.; André, N. Oncotarget 2011, 2, 797).
Cell proliferation was determined and expressed as a percentage of untreated control cells. The determination of IC50 values was performed using GraphPad Prism 6 (San Diego, Calif., USA).
To further evaluate the utility of these novel guanylated peptidomimetics for medical applications, it was essential to determine their specificity towards bacterial cells over mammalian cells.

S. marcescens [8] = experiment: Biofilm inhibition assay (inhibition of biofilm formation), crystal violet staining; assay type: cell-based; details: Serratia marcescens, 24 h
Method: as §3, with “no-established” for “pre-established”, “along” for “prior to supplementation”, “water.” for “DMSO.”
as §4

[9] = tested on: Pseudomonas aeruginosa (PAO1); experiment: Biofilm disruption assay, established biofilms, crystal violet staining; assay type: cell-based; details: 250 μM, 24 h treatment
Method: as §3, §4

S. aureus [10] = experiment: as above; assay type: cell-based; details: 250 μM, 24 h treatment
Method: as §3, §4

[11] = MHB, 37° C., 24 h, read-out: Minimum inhibitory concentration (MIC) S. aureus
[12] = MIC in μM as compared with MRC-5 IC50, read-out: equivalent MIC values

Structure (SMILES) | MIC (S. aureus (SA38)) [µM] | tBLM conduction response [1] | IC50 [2] [µM] | MIC (E. coli [3]) [µg/mL] | MIC (S. aureus [4]; [11]) [µg/mL] | MIC (S. aureus [4]; [12]) [µM] | inhibition at 250 µM (S. marcescens [8]) [%] | also measured
CCCCCCCCS(=O)(=O)Nc1ccc(Br)cc1C(=O)C(=O)NCCCN(C)C [Compound 24a, 2-(5-Bromo-2-(octylsulfonamido)phenyl)-N-(3-(dimethylamino)propyl)-2-oxoacetamide] | 47 (≈ 23.7 µg/mL) | showed conduction responses | 37.4 |  |  |  |  | toxicity to human cells ([2]; MRC-5): high level of toxicity to human cells
Cl.N=C(N)NCCCNC(=O)C(=O)c1cc(Br)ccc1NC(=O)c1ccc2ccccc2c1 [Compound 35, N-(4-Bromo-2-(2-((3-guanidinopropyl)amino)-2-oxoacetyl)phenyl)-2-naphthamide hydrochloride] |  |  |  | > 110 | 6 | 12.5 |  | disruption of established biofilms of S. marcescens (S. marcescens [5]): 49%; disruption of established biofilms of E. coli (E. coli [6]): 46%; IC50 [7]: 174 µM
Cl.N=C(N)NCCCNC(=O)C(=O)c1cc(Cl)ccc1NC(=O)c1ccc2ccccc2c1 [Compound 36, N-(4-Chloro-2-(2-((3-guanidinopropyl)amino)-2-oxoacetyl)phenyl)-2-naphthamide hydrochloride] |  |  |  | > 110 | 8 | 16 | 71 | disruption of established biofilms of E. coli (E. coli [6]): 43%; IC50 [7]: 224 µM
CCCCCCCCS(=O)(=O)Nc1ccc(Br)cc1C(=O)C(=O)NCCN(C)C.Cl [Compound 38b, 2-(2-(5-Bromo-2-(octylsulfonamido)phenyl)-2-oxoacetamido)-N,N-dimethylethan-1-aminium chloride] | 63 | showed conduction responses | 75.5 |  |  |  |  | 
CCCCCCCCS(=O)(=O)Nc1ccccc1C(=O)C(=O)NCCCNC(=N)N.Cl [Compound 42d, N-(3-Guanidinopropyl)-2-(2-(octylsulfonamido)phenyl)-2-oxoacetamide hydrochloride] | 47 | showed conduction responses | 373 |  |  |  |  | 
CCCCCCCCS(=O)(=O)Nc1ccc(Br)cc1C(=O)C(=O)NCCCNC(=N)N.Cl [Compound 43d, 2-(5-Bromo-2-(octylsulfonamido)phenyl)-N-(3-guanidinopropyl)-2-oxoacetamide hydrochloride] | 12 | showed conduction responses | 178 |  |  |  |  | 
Cl.N=C(N)NCCCC[C@H](NC(=O)C(=O)c1cc(F)ccc1NC(=O)c1ccc2ccccc2c1)C(=O)O [Compound 53, N^2-(2-(2-(2-naphthamido)-5-fluorophenyl)-2-oxoacetyl)-N^6-carbamimidoyllysine hydrochloride] |  |  |  | 67 | 108 |  | 67 | Minimum inhibitory concentration (MIC) E. coli (E. coli [3]; hydrochloride): 68 µg/mL; disruption of established biofilms of S. marcescens (S. marcescens [5]): 40%; disruption of established biofilms of P. aeruginosa [9]: 42%; disruption of established biofilms of S. aureus (S. aureus [10]): 46%
COC(=O)[C@H](CCCNC(=N)N)NC(=O)[C@H](CCCNC(=N)N)NC(=O)C(=O)c1cc(Br)ccc1NC(=O)c1ccc2ccccc2c1.Cl.Cl [Compound 66, Methyl (2-(2-(2-naphthamido)-5-bromophenyl)-2-oxoacetyl)arginylargininate dihydrochloride] |  |  |  | 50 | 10 | 15.7 | 69 | disruption of established biofilms of P. aeruginosa ([9]; dihydrochloride): 54% and 55%; toxicity (IC50) against MRC-5 human fibroblast cells ([7]; 72 h incubation): not reaching a 50% reduction of cell viability at the highest tested dose
